Laboratory results taken from US20250221936A1, “ENGINEERED HEMICHANNELS, ENGINEERED VESICLES, AND USES THEREOF” (VIRGINIA TECH INTELLECTUAL PROPERTIES, INC., priority 2018, published 2025).
Entries after “also recorded” stand apart in the source; their conditions may differ.

Legend:
adult mouse hearts = experiment: Langendorff ischemia-reperfusion (I/R) injury, LV contractility; details: for recovery of LV contractile performance during reperfusion: pre-ischemic 20-minute peptide infusion, 20 min ischemia, 40 min reperfusion
Description: Male, 3-month-old, body weight 25±5 g C57BL/6 mice were used for this study and obtained from Charles River. Animals were randomly assigned to experimental groups and Left ventricular (LV) function was measured and myocardial ischemia-reperfusion injury (I/R) was induced as previously described^23. Briefly, 15 minutes after the injection of heparin at a dose of 200U/10 g body weight, the mouse was anesthetized by inhalation of isoflurane vapor and subjected to cervical dislocation upon the cessation of respiration. Thoracotomy was immediately performed and the heart excised. The heart was arrested in ice-cold Krebs-Henseleit (KH) buffer (in mM: 25 NaHCO3, 0.5 EDTA, 5.3 KCl, 1.2 MgSO4, 0.5 pyruvate, 118 NaCl, 10 glucose, 2.5 CaCl2). The aorta was isolated and cannulated in a Langendorff perfusion system. The heart was then perfused at a constant pressure of 75 mmHg with KH buffer, which was continually bubbled with 5% CO2/95% O2 at 37° C. Effluent from the Thebesian veins was drained by a thin polyethylene tube (PE-10) pierced through the apex of the LV. A water-filled balloon made of polyvinylchloride film was inserted in the LV and connected to a blood pressure transducer (Harvard Apparatus, 733866, MA). After a 30-minute stabilization period, a balloon volume (BV) generating an LV end-diastolic-pressure (EDP) of 0 mmHg, was determined for the heart. The BV was then increased stepwise up through 1, 2, 5, 8, 10, 12, 15, 18, 20, 25, 30 μl increments of 1-5 μl and contractile performance were recorded for 10 seconds at each step. The indexes of cardiac function were amplified by a Transducer Amplifier Module (Harvard Apparatus, 730065, MA). Data was recorded and analyzed using PowerLab 4/35 (ADInstruments, PL3504, CO) and LabChart V7 (ADInstruments, CO). The BV was then adjusted to set EDP at about 8-10 mmHg and held constant during the ensuing steps of the protocol. Baseline function (determined by EDP at about 8-10 mmHg) was recorded for 5 minutes. The perfused beating heart were then treated with freshly prepared peptide stocks (0.2 mM), which were infused using syringe pump (Kent Sci, CT) into the perfusion buffer in a mixing chamber above the heart at 5% of coronary flow rate, to deliver final concentrations of 10-50 μM or equivalent vehicle for 20 minutes. At the end of the peptide infusion period hearts were subjected to global, no-flow normothermic ischemia by turning off the perfusion flow for 20 min, followed by a reperfusion phase for 40 min. BV was retaken through the stepwise sequence of 1-5 μl increments between 1 and 30 μl, with contractile performance again being recorded for 10 seconds at each step. Cardiac LV function was recorded throughout the procedure. In the case of post-ischemic treatment with alpha CT11 peptide, peptide infusion was begun at the initiation of the reperfusion phase, continued for 20 minutes and then contractile function by BV increments was taken as per the other hearts. A set of hearts were freeze-clamped immediately after peptide infusion for Western blotting. The protocol is illustrated in FIG. 9.

[1] = system: Cx43 S368 phosphorylation; experiment: Western blot of Cx43-pS368 in peptide-infused LV; design: species or system mouse; details: peptide infused 20 minutes; relative to vehicle control
Description: Protein samples from all related experiments (PKC and EDC cross-linking assays and Westerns on heart lysates) were processed in lithium dodecyl sulfate sample loading buffer (Bio-Rad, 1610737 CA), heated at 95° C. for 5 minutes. Samples from PKC and cross-linking assays were loaded on 18% Tris-Glycine Stain-Free gels (Bio-Rad, 5678073 CA); samples from heart lysates were loaded on 10% Tris-Glycine Stain-Free el (Bio-Rad: 5678033 CA), resolved by SDS-PAGE, transferred to PVDF FL membrane on a Turbo Transfer System (Bio-Rad, 1704155 CA). alpha CT1 eluted from cross-linking reactions was detected on blots against biotin with HRP-NeutrAvidin (ThermoFisher, 31001, MA). Signals were detected by HR-based chemiluminescence (ThermoFisher, 34095, MA) and exposed to ECL Chemidoc (Bio-Rad, 1708280 CA) and digitized using Image Lab software (Bio-Rad, 1709692 CA). Detailed methods have also been previously described^11, 13, 14 Surface Plasmon Resonance
Male, 3-month-old, body weight 25±5 g C57BL/6 mice were used for this study and obtained from Charles River. Animals were randomly assigned to experimental groups and Left ventricular (LV) function was measured and myocardial ischemia-reperfusion injury (I/R) was induced as previously described^23. Briefly, 15 minutes after the injection of heparin at a dose of 200U/10 g body weight, the mouse was anesthetized by inhalation of isoflurane vapor and subjected to cervical dislocation upon the cessation of respiration. Thoracotomy was immediately performed and the heart excised. The heart was arrested in ice-cold Krebs-Henseleit (KH) buffer (in mM: 25 NaHCO3, 0.5 EDTA, 5.3 KCl, 1.2 MgSO4, 0.5 pyruvate, 118 NaCl, 10 glucose, 2.5 CaCl2). The aorta was isolated and cannulated in a Langendorff perfusion system. The heart was then perfused at a constant pressure of 75 mmHg with KH buffer, which was continually bubbled with 5% CO2/95% O2 at 37° C. Effluent from the Thebesian veins was drained by a thin polyethylene tube (PE-10) pierced through the apex of the LV. […] After a 30-minute stabilization period, a balloon volume (BV) generating an LV end-diastolic-pressure (EDP) of 0 mmHg, was determined for the heart. The BV was then increased stepwise up through 1, 2, 5, 8, 10, 12, 15, 18, 20, 25, 30 μl increments of 1-5 μl and contractile performance were recorded for 10 seconds at each step. […] Data was recorded and analyzed using PowerLab 4/35 (ADInstruments, PL3504, CO) and LabChart V7 (ADInstruments, CO). […] Baseline function (determined by EDP at about 8-10 mmHg) was recorded for 5 minutes. […] BV was retaken through the stepwise sequence of 1-5 μl increments between 1 and 30 μl, with contractile performance again being recorded for 10 seconds at each step. Cardiac LV function was recorded throughout the procedure. […]

RQPKIWFPNRRKPWKK RPRPAALAI (RQPKIWFPNRRKPWKKRPRPAALAI) [M1 AALAI]
recovery of LV contractile performance during reperfusion (adult mouse hearts): no ability to improve recovery
Cx43 pS368 in LV samples [1]: no propensity to upregulate S368 phosphorylation

RQPKIWFPNRRKPWKKRPRPDDLAI [M3 DDLAI]
recovery of LV contractile performance during reperfusion (adult mouse hearts): no ability to improve recovery
Cx43 pS368 in LV samples [1]: no propensity to upregulate S368 phosphorylation

RQPKIWFPNRRKPWKKRPRPDDLE [alpha CT1-I]
recovery of LV contractile performance during reperfusion (adult mouse hearts): significant functional recovery after I/R injury
Cx43 pS368 in LV samples [1]: significant increases in phosphorylation

RQPKIWFPNRRKPWKKRPRPDDLEI [alpha CT1]
recovery of LV function (adult mouse hearts; 20-minute peptide infusion at initiation of reperfusion (post-ischemic)): did not result in significant recovery of LV function
cardiac muscle loss (adult mouse hearts; ex vivo I/R injury): reduce cardiac muscle loss by more than half
recovery of LV contractile performance during reperfusion (adult mouse hearts): notable recovery of LV function during reperfusion; also recorded: significant functional recovery after I/R injury
Cx43 pS368 in LV samples [1]: significant increases in phosphorylation
